# Laboratory results: patent US11958812B2, “3, 5-disubstituted pyridine and 3, 5-disubstituted pyridazine derivatives and pharmaceutical use of same” (MITSUBISHI TANABE PHARMA CORPORATION, priority 2018, dated 2024)
# Target: human recombinant ATX (Homo sapiens, UniProt Q13822)
# Test: Enzyme inhibition test (choline release from LPC, Amplex UltraRed fluorescence)
# Type: biochemical
# Conditions: 200 μM LPC substrate, 1 hr at room temperature, read-out: Experimental Example 1 human ATX IC50
# Procedure: [Enzyme Inhibition Test Method]
# A mixture (10 μL) of substrate and a set of choline quantification reagents (200 μM LPC (1-Oleoyl-sn-glycero-3-phosphocholine Sigma #L1881), 25 μM Amplex UltraRed reagent (Invitrogen), 0.1 U/mL Peroxidase (TOYOBO), 1 U/mL Choline oxidase (TOYOBO)), prepared with assay buffer (50 mM Tris (pH 8.0), 140 mM NaCl, 5 mM KCl, 1 mM CaCl2, 1 mM MgCl2, 0.1% BSA (Albumin from bovine serum, SIGMA), 0.0025% Triton X-100), enzyme (0.4 ng/μL human recombinant ATX) (10 μL), compound-containing solution (100 nL) were dispensed to a 384-well plate, incubated at room temperature for 1 hr and the fluorescence (Ex. 525 nm/Em. 598 nm) was measured. As the standard, choline chloride was used. With a blank free of enzyme was taken as inhibitory rate 100%, and a control free of inhibitor as inhibitory rate 0%, the inhibitory rate was calculated, and IC50 value was calculated from the inhibitory activity percentage at each concentration.
row,IC50,Compound
1,0.001 µM,"O=C(O)c1ccc2c(c1)CCN2c1cncc(OC[C@H]2CC[C@H](C(F)(F)F)CC2)c1 [Example 12, 1-(5-{[trans-4-(trifluoromethyl)cyclohexyl]methoxy}pyridin-3-yl)-2,3-dihydro-1H-indole-5-carboxylic Acid]"
2,0.004 µM,COc1ccc(-c2cnnc(OCc3ccc(OC(F)(F)F)cc3)c2)cc1C1CC1C(=O)O (centres unmarked) [Example 31]
3,0.013 µM,"O=C(O)CC[C@H]1CN(c2cncc(OC[C@H]3CC[C@H](C(F)(F)F)CC3)c2)CCO1 [Example 16, 3-[(2S)-4-(5-{[trans-4-(trifluoromethyl)cyclohexyl]methoxy}pyridin-3-yl)morpholin-2-yl]propanoic Acid]"
4,0.007 µM,O=C(O)c1ccc(C2CN(c3cncc(OC[C@H]4CC[C@H](C(F)(F)F)CC4)c3)CCO2)cc1 (some centres unmarked) [Example 45]
5,0.02 µM,"O=C(O)[C@@H]1C[C@H]1c1cccc(-c2cncc(OC[C@H]3CC[C@H](C(F)(F)F)CC3)c2)n1 [Example 8-2, (1R,2R)-2-(5′-{[trans-4-(trifluoromethyl)cyclohexyl]methoxy}-2,3′-bipyridin-6-yl)cyclopropanecarboxylic Acid]"
6,0.001 µM,"COc1ccc(-c2cnnc(OC[C@H]3CC[C@H](C(F)(F)F)CC3)c2)cc1[C@H]1C[C@@H]1C(=O)O [Example 1-1, (1S,2S)-2-[2-methoxy-5-(6-{[trans-4-(trifluoromethyl)cyclohexyl]methoxy}pyridazin-4-yl)phenyl]cyclopropanecarboxylic Acid]"
7,0.019 µM,O=C(O)CC[C@H]1CN(c2cncc(OCc3ccc(OC(F)(F)F)cc3F)c2)CCO1 [Example 82]
8,0.012 µM,O=C(O)CC[C@H]1CN(c2cncc(OCc3ccc(SC(F)(F)F)cc3)c2)CCO1 [Example 81]
9,0.009 µM,CC1(C(=O)O)CC1[C@H]1CN(c2cnnc(OC[C@H]3CC[C@H](C(F)(F)F)CC3)c2)CCO1 (some centres unmarked) [Example 89]
10,0.005 µM,Cc1cnc(C2CN(c3cncc(OC[C@H]4CC[C@H](C(F)(F)F)CC4)c3)CCO2)cc1C(=O)O (some centres unmarked) [Example 60]
11,0.381 µM,O=C(O)CC[C@H]1CN(c2cncc(OCc3ccc(F)cc3)c2)CCO1 [Example 77]
12,0.024 µM,O=C(O)CCC1CCCN(c2cncc(OCc3ccc(OC(F)(F)F)cc3)c2)C1 (centres unmarked) [Example 91]
13,0.493 µM,O=C(O)CC[C@H]1CN(c2cncc(OCc3ccccc3Cl)c2)CCO1 [Example 80]
14,0.005 µM,Cc1ncc(C2CN(c3cncc(OC[C@H]4CC[C@H](C(F)(F)F)CC4)c3)CCO2)cc1C(=O)O (some centres unmarked) [Example 59]
15,0.004 µM,COc1ccc(-c2cncc(/C=C/c3ccc(OC(F)(F)F)cc3)c2)nc1[C@H]1C[C@@H]1C(=O)O [Example 28]
16,0.003 µM,"O=C(O)[C@@H]1C[C@H]1c1cc(-c2cnnc(OC[C@H]3CC[C@H](C(F)(F)F)CC3)c2)ccn1 [Example 10-2, (1R,2R)-2-[4-(6-{[trans-4-(trifluoromethyl)cyclohexyl]methoxy}pyridazin-4-yl)pyridin-2-yl]cyclopropanecarboxylic Acid]"
17,0.004 µM,Cc1ccc(C2CN(c3cncc(OC[C@H]4CC[C@H](C(F)(F)F)CC4)c3)CCO2)nc1C(=O)O (some centres unmarked) [Example 58]
18,0.152 µM,O=C(O)CC[C@@H]1CN(c2cncc(OCc3ccc(OC(F)(F)F)cc3)c2)CCO1 [Example 69]
19,0.057 µM,COc1ccc(-c2cncc(OCc3cccc(OC(F)(F)F)c3)c2)cc1C1CC1C(=O)O (centres unmarked) [Example 33]
20,0.068 µM,O=C(O)CC[C@H]1CN(c2cncc(OCC3CCC(F)(F)CC3)c2)CCO1 [Example 75]

row,IC50,Compound
1,0.001 µM,O=C(O)c1ccc2c(c1)N(c1cncc(OC[C@H]3CC[C@H](C(F)(F)F)CC3)c1)CC2 [Example 35]
2,0.007 µM,O=C(O)c1ccc(C2CN(c3cncc(OCc4ccc(OC(F)(F)F)cc4)c3)CCO2)nc1 (centres unmarked) [Example 63]
3,0.005 µM,COc1cc(C2CN(c3cncc(OC[C@H]4CC[C@H](C(F)(F)F)CC4)c3)CCO2)ncc1C(=O)O (some centres unmarked) [Example 54]
4,0.01 µM,CC1(C)CCC(COc2cncc(N3CCO[C@@H](CCC(=O)O)C3)c2)CC1 [Example 74]
5,0.008 µM,O=C(O)c1ccc2c(c1)N(c1cncc(OCc3ccc(OC(F)(F)F)cc3)c1)CC2 [Example 37]
6,0.074 µM,"O=C(O)/C=C/CC1COCCN1c1cncc(OCc2ccc(OC(F)(F)F)cc2)c1 (single isomer, unassigned) [Example 22-2]"
7,0.009 µM,O=C(O)CC[C@H]1CN(c2cncc(OCC3CCC4(CC3)CC4)c2)CCO1 [Example 73]
8,0.35 µM,O=C(O)c1ccccc1C1CN(c2cncc(OCc3ccc(OC(F)(F)F)cc3)c2)CCO1 (centres unmarked) [Example 44]
9,0.016 µM,O=C(O)c1ccnc(C2CN(c3cncc(OCc4ccc(OC(F)(F)F)cc4)c3)CCO2)c1 (centres unmarked) [Example 65]
10,0.002 µM,"C[C@@]1(C(=O)O)C[C@H]1[C@H]1CN(c2cncc(OC[C@H]3CC[C@H](C(F)(F)F)CC3)c2)CCO1 (relative stereo) [Example 20, trans-1-methyl-2-[(2S)-4-(5-{[trans-4-(trifluoromethyl)cyclohexyl]methoxy}pyridin-3-yl)morpholin-2-yl]cyclopropanecarboxylic Acid]"
11,0.113 µM,O=C(O)/C=C/C1CCCN1c1cncc(OCc2ccc(OC(F)(F)F)cc2)c1 (centres unmarked) [Example 101]
12,0.135 µM,O=C(O)CC[C@H]1CN(c2cncc(OCC3CCN(CC(F)(F)F)CC3)c2)CCO1 [Example 70]
13,0.01 µM,O=C(O)c1ccc(C2CN(c3cncc(OC[C@H]4CC[C@H](C(F)(F)F)CC4)c3)CCO2)nc1 (some centres unmarked) [Example 50]
14,0.017 µM,"COc1ccc(-c2cnnc(CCc3ccc(OC(F)(F)F)cc3)c2)cc1[C@@H]1C[C@H]1C(=O)O (relative stereo) [Example 4, trans-2-[2-methoxy-5-(6-{2-[4-(trifluoromethoxy)phenyl]ethyl}pyridazin-4-yl)phenyl]cyclopropanecarboxylic Acid]"
15,0.035 µM,COc1ccc(C2CN(c3cncc(OCC4CCN(CC(F)(F)F)CC4)c3)CCO2)cc1C(=O)O (centres unmarked) [Example 48]
16,0.008 µM,O=C(O)CC[C@H]1CN(c2cncc(OCC3CCC4(CCC4)CC3)c2)CCO1 [Example 72]
17,0.133 µM,C[C@H]1CN(c2cncc(OCc3ccc(OC(F)(F)F)cc3)c2)C[C@H](CCC(=O)O)O1 [Example 88]
18,0.056 µM,"O=C(O)COC[C@@H]1COCCN1c1cncc(OCc2ccc(OC(F)(F)F)cc2)c1 [Example 21, {[(3S)-4-(5-{[4-(trifluoromethoxy)benzyl]oxy}pyridin-3-yl)morpholin-3-yl]methoxy}acetic Acid]"
19,0.003 µM,COc1ccc(C2CN(c3cncc(OC[C@H]4CC[C@H](C(F)(F)F)CC4)c3)CCO2)cc1C(=O)O (some centres unmarked) [Example 47]
20,0.378 µM,O=C(O)CC1CCN(c2cncc(OCc3ccc(OC(F)(F)F)cc3)c2)C1 (centres unmarked) [Example 97]

# Target: T1, ATX activity in plasma (Rattus norvegicus, UniProt Q64610)
# T1 construct: from tissue; host or cells: plasma of male Wistar rats after oral dosing
# Test: Measurement of ATX activity in plasma (ex vivo), rat single administration test
# Set-up: species or system male Wistar rat
# Conditions: not given
# Procedure: [Measurement of ATX Activity in Plasma (Ex Vivo)]
# A compound administration solution prepared by wet pulverization in a mixer mill (type: MM400) for 10 min and adjusting to a given concentration with 0.5% aqueous carboxymethylcellulose solution was orally administered to male Wistar rat (5-week-old when used) at 5 mL/kg. Blood samples were collected from the cervical vein over time at 8 to 24 hr after administration. The blood was heparin-treated using a micro blood collection tube Capiject (CJ-AL, TERUMO CORPORATION), and the plasma was separated by centrifugation (4° C., 12,000 rpm, for 2 min), and preserved at −80° C. The rats after blood sampling were euthanized by exsanguination from the caudal vena cava under isoflurane inhalation anesthesia. The measurement of ATX activity in plasma was evaluated using the concentration of choline in the plasma, which was liberated from lysophosphatidylcholine (substrate of ATX) by the lysophospholipase D activity of ATX, as an index. An equal amount of 2× assay buffer (200 mM Tris-HCl pH9.0, 10 mM MgCl2, 1 M NaCl, 0.1% Triton X-100) is added to plasma (12 μL) and reacted at 37° C. for 6 hr. The reaction mixture (10 μL) after reaction for 6 hr and 45 μL of reagent R^1 solution (100 mM Tris-HCl pH 8.0, 0.5 mM TOOS, 10 U/mL peroxidase, 0.01% Triton X-100) were added and blended and absorbance at 550-700 nm was measured and used as a prevalue. As the standard, choline chloride was used. 1 mM choline chloride was diluted with 2× assay buffer up to 7 steps in 2-fold serial dilution, R^1 solution was treated similarly and the absorbance was measured. Furthermore, 15 μL of reagent R^2 solution (100 mM Tris-HCl pH 8.0, 1 mM 4-aminoantipyrine, 10 U/mL choline oxidase, 0.01% Triton X-100) was added, and the mixture was reacted at room temperature for 10 min, and absorbance at 550-700 nm was measured. The choline concentration per reaction time was calculated from the difference between the absorbance after R^2 solution addition and prevalue measured before R^2 addition and used as ATX activity value. inhibitory activity (%)=100×{1−[choline concentration (μM) of test substance administration group/choline concentration (μM) of solvent control group]} <calculating formula>
row,Experimental Example 2 Rat single administration test (inhibitory activity (%) 8 hr after 1 mg/kg oral administration),Compound
1,76%,"O=C(O)c1ccc2c(c1)CCN2c1cncc(OC[C@H]2CC[C@H](C(F)(F)F)CC2)c1 [Example 12, 1-(5-{[trans-4-(trifluoromethyl)cyclohexyl]methoxy}pyridin-3-yl)-2,3-dihydro-1H-indole-5-carboxylic Acid]"
2,90%,COc1ccc(-c2cnnc(OCc3ccc(OC(F)(F)F)cc3)c2)cc1C1CC1C(=O)O (centres unmarked) [Example 31]
3,89%,"O=C(O)CC[C@H]1CN(c2cncc(OC[C@H]3CC[C@H](C(F)(F)F)CC3)c2)CCO1 [Example 16, 3-[(2S)-4-(5-{[trans-4-(trifluoromethyl)cyclohexyl]methoxy}pyridin-3-yl)morpholin-2-yl]propanoic Acid]"
4,81%,O=C(O)c1ccc(C2CN(c3cncc(OC[C@H]4CC[C@H](C(F)(F)F)CC4)c3)CCO2)cc1 (some centres unmarked) [Example 45]
5,47%,"O=C(O)[C@@H]1C[C@H]1c1cccc(-c2cncc(OC[C@H]3CC[C@H](C(F)(F)F)CC3)c2)n1 [Example 8-2, (1R,2R)-2-(5′-{[trans-4-(trifluoromethyl)cyclohexyl]methoxy}-2,3′-bipyridin-6-yl)cyclopropanecarboxylic Acid]"
6,94%,"COc1ccc(-c2cnnc(OC[C@H]3CC[C@H](C(F)(F)F)CC3)c2)cc1[C@H]1C[C@@H]1C(=O)O [Example 1-1, (1S,2S)-2-[2-methoxy-5-(6-{[trans-4-(trifluoromethyl)cyclohexyl]methoxy}pyridazin-4-yl)phenyl]cyclopropanecarboxylic Acid]"
7,89%,O=C(O)CC[C@H]1CN(c2cncc(OCc3ccc(OC(F)(F)F)cc3F)c2)CCO1 [Example 82]
